Article PMC11932207, “Regulating AMPA Receptors with Isoxazole-4-Carboxamide Derivatives: An Electrophysiological Study” (Journal of Xenobiotics, 2025)
Where two headings read alike, the source gives them in different places.

Assays:
Format in all cases: cell-based
GluN1a/2B = target: T1, GluN1a/2B (Homo sapiens, UniProt Q05586+Q13224); experiment: Selectivity: whole-cell normalized peak current of NMDA receptor GluN1a/2B; settings: 16 µM compound, HEK293t, −60 mV
T1 construct: expressed in transfected cells; host or cells: HEK293t cells
Method: (§1) To evaluate the selectivity of CIC-1 and CIC-2 derivatives, their effects on GluN1a/2A and GluN1a/2B of the NMDA receptors were tested. The normalized peak current responses of the subunits alone and with CIC-1 and CIC-2 were determined (Figure 4).
(§2) Figure 4 The inhibitory actions of Isoxazole-4-carboxamide derivatives on the whole-cell currents mediated by GluA2, GluA2/3 AMPA receptor subtypes and GluN1a/2A, […] receptor subtypes. (a) represents data for CIC-1 and CIC-2 compounds. AMPA- and NMDA-induced currents (black bars) are then compared to currents recorded in the presence of 16 µM CIC compounds (white bars). Panels (b–e) show representative traces of whole-cell current responses to a 1 ms administration of 10 mM glutamate for the subunits. The traces show normalized responses for glutamate alone (black) and glutamate in combination with CIC compounds (color-coded). The recording was performed in HEK293t cells at −60 mV, pH 7.4, and 22 °C. Data present mean ± SD from 3–4 different experiments. *** p < 0.001; and “ns” indicates not significant.

GluN1a/2A = target: T2, GluN1a/2A (Homo sapiens, UniProt Q05586+Q12879); experiment: Selectivity: whole-cell normalized peak current of NMDA receptor GluN1a/2A; settings: 16 µM compound, HEK293t, −60 mV
T2 construct: expressed in transfected cells; host or cells: HEK293t cells
Method: as §1, §2

GluA2/3 = target: T3, GluA2/3 (UniProt P19491+P42263); experiment: Whole-cell patch clamp recordings of heteromeric GluA2/3 AMPA receptor currents and kinetics in transfected HEK293t cells; settings: for Amplitude (peak whole-cell current in presence of compound): 16 µM compound co-applied with agonist, HEK293t, −60 mV, pH 7.4, 22 °C; for Amplitude (peak whole-cell current in presence of compound) / A/AI (amplitude ratio, glutamate alone / with compound) / t deact (weighted deactivation time constant) / t des (weighted desensitization time constant) / Amplitude, applying glutamate alone after compound: mean ± SD; for Amplitude (peak whole-cell current in presence of compound) / A/AI (amplitude ratio, glutamate alone / with compound) / Amplitude, applying glutamate alone after compound: n = 10; for A/AI (amplitude ratio, glutamate alone / with compound): 16 µM compound; for t deact (weighted deactivation time constant): 10 mM glutamate for 1 ms; for t deact (weighted deactivation time constant) / t des (weighted desensitization time constant): with compound; for t des (weighted desensitization time constant): 10 mM glutamate for 500 ms; for Amplitude, applying glutamate alone after compound: glutamate alone after the compound; for Effect on deactivation kinetics (τdeac), in words / Effect on desensitization kinetics (τdes), in words: versus glutamate alone, one-way ANOVA
T3 construct: expressed in transfected cells; host or cells: HEK293T (HEK293) cells, transient co-transfection
Text: (§3) The AMPA receptor subunits utilized in this study were of the flip isoform. The flip variant of the GluA2 subunit was originally provided by S. F. Heinemann (Salk Institute, La Jolla, CA, USA) in a pBlueScript plasmid. This plasmid was subsequently sub-cloned into a pRK vector to enable expression in HEK293 cells, which were sourced from Sigma, Germany. Additionally, the unedited version of GluA2 (R607Qjj, flip isoform) and enhanced green fluorescent protein (EGFP), both contained in pRK5 vectors, were generously supplied by P. H. Seeburg (Max Planck Institute for Medical Research, Heidelberg, Germany). Chemical-mediated ways induced transfection. GluA2 homomers were expressed into HEK293 cells by the co-transfection of 1 μg GluA2 plasmid with an equal amount of GFP expression vectors (1:1 ratio) into the cells. In addition, co-transfection was conducted for heteromeric GluA2/3 subunits at a ratio of 1:1.2 for optimum expression. For post-transfection experiments, cells were plated in 10% fetal calf serum and antibiotics in DMEM in Petri plates. These cultures were maintained under carefully controlled conditions—37 °C and 5% CO2 within a humidified incubator. The selection of cells for recordings was based on fluorescence intensity. Highly GFP-positive cells were identified and isolated for further analysis, ensuring precise targeting of transfected populations.
(§4) Whole-cell patch clamp recordings were performed on HEK293t cells 36–48 h after transfection. Experiments were conducted at 22 °C, maintaining a holding potential of −60 mV, using an Integrated Patch Amplifier (IPA) from Sutter Instruments (Novato, CA, USA). Data acquisition was managed with SutterPatch Software v. 1.1.1 (Sutter Instruments), employing a sampling rate of 10 kHz and setting the low-pass filter at 2 kHz. […] The external solution contained 150 mM NaCl, 2.8 mM KCl, 0.5 mM MgCl2, 2 mM CaCl2, and 10 mM HEPES, adjusted to a pH of 7.4 using NaOH. The internal pipette solution was composed of 110 mM CsF, 30 mM CsCl, 4 mM NaCl, 0.5 mM CaCl2, 10 mM trypsin-EDTA solution B (0.25%), 0.05% EDTA, and 10 mM HEPES, with the pH adjusted to 7.2 using CsOH.
(§5) A dual-barrel glass pipette (theta tube) was employed for the rapid delivery of glutamate and other solutions. The theta tube was attached to a high-speed piezoelectric solution exchange system (Automate Scientific, Berkeley, CA, USA). To assess the efficiency of solution exchange, open-tip potentials were measured by applying solutions with different ionic compositions after the patch was expelled from the pipette. The time required for a 10–90% change in the solution was generally less than […].
(§6) Data analysis was performed with Igor Pro8.04 software (Wave Metrics, Inc., Portland, OR, USA). AMPA receptor deactivation and desensitization kinetics were measured by applying 10 mM glutamate for 1 ms and 500 ms, respectively. The currents from the AMPA receptor were fitted to a double-exponential model to quantify deactivation and desensitization time constants measured from the double-exponential fits. The weighted tau (τw) is calculated as: τw = (τf × af) + (τs × as), where τf and τs are the time constants of fast and slow exponential components and af and as represent their relative amplitudes.
(§7) Data are presented as the mean ± standard deviation (SD). The total number of HEK293 cells engaged was n = 10. The experimental groups were compared to the wild type using a one-way analysis of variance (ANOVA). Statistical significance was assessed using p values: p < 0.05 (*) indicated significance, p < 0.01 (**) indicated high significance, and p < 0.001 (***) indicated very high significance. The value “ns” indicates non-significance. Concentration–response relationships were modeled using the Hill equation with the resulting combined plots via GraphPad Prism software (version 6.01, GraphPad Software). The data presented are the means from 3–4 experimental replicates. […]

GluA2 = target: T4, GluA2 (Rattus norvegicus, UniProt P19491); experiment: Whole-cell patch clamp recordings of homomeric GluA2 AMPA receptor currents and kinetics in transfected HEK293t cells; settings: for Amplitude (peak whole-cell current in presence of compound): 16 µM compound co-applied with agonist, HEK293t, −60 mV, pH 7.4, 22 °C; for Amplitude (peak whole-cell current in presence of compound) / A/AI (amplitude ratio, glutamate alone / with compound) / t deact (weighted deactivation time constant) / t des (weighted desensitization time constant) / Amplitude, applying glutamate alone after compound: mean ± SD; for Amplitude (peak whole-cell current in presence of compound) / A/AI (amplitude ratio, glutamate alone / with compound) / Amplitude, applying glutamate alone after compound: n = 10; for A/AI (amplitude ratio, glutamate alone / with compound): 16 µM compound; for t deact (weighted deactivation time constant): 10 mM glutamate for 1 ms; for t deact (weighted deactivation time constant) / t des (weighted desensitization time constant): with compound; for t des (weighted desensitization time constant): 10 mM glutamate for 500 ms; for Amplitude, applying glutamate alone after compound: glutamate alone after the compound; for Effect on deactivation kinetics (τdeac), in words / Effect on desensitization kinetics (τdes), in words: versus glutamate alone, one-way ANOVA
T4 construct: expressed in transfected cells; host or cells: HEK293T (HEK293) cells, transient co-transfection with a separate EGFP vector
Text: as §3, §4, §5, §6, §7

[1] = concentration–response fit, read-out: Log IC50 (converted)
[2] = inhibition of whole-cell peak current, concentration–response, Hill fit, read-out: IC50

T4 sequence (P19491 22-883 isoform P19491-2 limits assumed): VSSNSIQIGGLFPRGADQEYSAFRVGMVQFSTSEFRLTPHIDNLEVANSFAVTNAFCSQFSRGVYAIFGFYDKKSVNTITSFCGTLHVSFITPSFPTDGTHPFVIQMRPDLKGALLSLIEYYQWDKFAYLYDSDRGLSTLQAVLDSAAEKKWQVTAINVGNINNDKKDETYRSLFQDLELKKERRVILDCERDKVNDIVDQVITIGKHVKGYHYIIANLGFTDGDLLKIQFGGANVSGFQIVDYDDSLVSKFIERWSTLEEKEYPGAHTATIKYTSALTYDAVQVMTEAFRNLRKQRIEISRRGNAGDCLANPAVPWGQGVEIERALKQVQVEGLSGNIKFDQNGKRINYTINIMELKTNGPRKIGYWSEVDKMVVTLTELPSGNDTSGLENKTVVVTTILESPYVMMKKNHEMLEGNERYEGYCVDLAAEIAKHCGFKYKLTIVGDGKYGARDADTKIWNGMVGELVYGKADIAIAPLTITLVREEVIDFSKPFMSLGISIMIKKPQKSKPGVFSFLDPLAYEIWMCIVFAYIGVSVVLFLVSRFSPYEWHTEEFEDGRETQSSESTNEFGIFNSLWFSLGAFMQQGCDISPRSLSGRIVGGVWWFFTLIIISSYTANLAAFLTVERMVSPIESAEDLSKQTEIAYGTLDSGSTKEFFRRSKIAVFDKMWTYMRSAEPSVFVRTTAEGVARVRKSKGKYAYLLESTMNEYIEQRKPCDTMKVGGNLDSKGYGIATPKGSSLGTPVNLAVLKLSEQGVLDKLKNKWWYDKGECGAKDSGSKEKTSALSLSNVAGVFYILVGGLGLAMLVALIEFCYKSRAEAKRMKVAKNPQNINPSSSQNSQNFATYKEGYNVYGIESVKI
T3 sequence (P19491 22-883 isoform P19491-2 limits assumed): as above
T3 sequence (P42263 29-894 isoform P42263-2 limits assumed): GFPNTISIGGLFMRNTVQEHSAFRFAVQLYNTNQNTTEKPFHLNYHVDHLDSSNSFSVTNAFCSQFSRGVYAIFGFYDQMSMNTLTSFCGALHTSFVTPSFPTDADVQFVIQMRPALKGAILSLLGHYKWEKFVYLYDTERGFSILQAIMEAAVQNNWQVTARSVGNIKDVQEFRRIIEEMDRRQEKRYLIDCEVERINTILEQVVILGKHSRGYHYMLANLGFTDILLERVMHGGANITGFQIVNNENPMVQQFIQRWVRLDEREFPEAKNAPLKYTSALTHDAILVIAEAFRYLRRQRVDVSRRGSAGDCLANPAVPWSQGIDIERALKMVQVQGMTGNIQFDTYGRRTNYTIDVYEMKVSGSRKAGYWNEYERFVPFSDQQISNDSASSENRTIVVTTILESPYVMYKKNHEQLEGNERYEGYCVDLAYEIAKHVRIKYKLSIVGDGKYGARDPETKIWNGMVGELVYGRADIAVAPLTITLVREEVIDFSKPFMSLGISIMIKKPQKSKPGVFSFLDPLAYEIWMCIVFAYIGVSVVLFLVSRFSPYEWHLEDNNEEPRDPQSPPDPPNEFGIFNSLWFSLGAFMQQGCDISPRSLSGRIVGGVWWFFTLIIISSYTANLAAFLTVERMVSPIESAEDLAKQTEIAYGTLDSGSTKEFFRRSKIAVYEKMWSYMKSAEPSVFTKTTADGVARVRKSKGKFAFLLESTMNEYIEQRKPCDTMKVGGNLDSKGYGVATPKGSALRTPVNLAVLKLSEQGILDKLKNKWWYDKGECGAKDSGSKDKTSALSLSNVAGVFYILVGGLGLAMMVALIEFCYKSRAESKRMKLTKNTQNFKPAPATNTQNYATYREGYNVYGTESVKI
T1 sequence (Q13224 27-1484, other chains not shown): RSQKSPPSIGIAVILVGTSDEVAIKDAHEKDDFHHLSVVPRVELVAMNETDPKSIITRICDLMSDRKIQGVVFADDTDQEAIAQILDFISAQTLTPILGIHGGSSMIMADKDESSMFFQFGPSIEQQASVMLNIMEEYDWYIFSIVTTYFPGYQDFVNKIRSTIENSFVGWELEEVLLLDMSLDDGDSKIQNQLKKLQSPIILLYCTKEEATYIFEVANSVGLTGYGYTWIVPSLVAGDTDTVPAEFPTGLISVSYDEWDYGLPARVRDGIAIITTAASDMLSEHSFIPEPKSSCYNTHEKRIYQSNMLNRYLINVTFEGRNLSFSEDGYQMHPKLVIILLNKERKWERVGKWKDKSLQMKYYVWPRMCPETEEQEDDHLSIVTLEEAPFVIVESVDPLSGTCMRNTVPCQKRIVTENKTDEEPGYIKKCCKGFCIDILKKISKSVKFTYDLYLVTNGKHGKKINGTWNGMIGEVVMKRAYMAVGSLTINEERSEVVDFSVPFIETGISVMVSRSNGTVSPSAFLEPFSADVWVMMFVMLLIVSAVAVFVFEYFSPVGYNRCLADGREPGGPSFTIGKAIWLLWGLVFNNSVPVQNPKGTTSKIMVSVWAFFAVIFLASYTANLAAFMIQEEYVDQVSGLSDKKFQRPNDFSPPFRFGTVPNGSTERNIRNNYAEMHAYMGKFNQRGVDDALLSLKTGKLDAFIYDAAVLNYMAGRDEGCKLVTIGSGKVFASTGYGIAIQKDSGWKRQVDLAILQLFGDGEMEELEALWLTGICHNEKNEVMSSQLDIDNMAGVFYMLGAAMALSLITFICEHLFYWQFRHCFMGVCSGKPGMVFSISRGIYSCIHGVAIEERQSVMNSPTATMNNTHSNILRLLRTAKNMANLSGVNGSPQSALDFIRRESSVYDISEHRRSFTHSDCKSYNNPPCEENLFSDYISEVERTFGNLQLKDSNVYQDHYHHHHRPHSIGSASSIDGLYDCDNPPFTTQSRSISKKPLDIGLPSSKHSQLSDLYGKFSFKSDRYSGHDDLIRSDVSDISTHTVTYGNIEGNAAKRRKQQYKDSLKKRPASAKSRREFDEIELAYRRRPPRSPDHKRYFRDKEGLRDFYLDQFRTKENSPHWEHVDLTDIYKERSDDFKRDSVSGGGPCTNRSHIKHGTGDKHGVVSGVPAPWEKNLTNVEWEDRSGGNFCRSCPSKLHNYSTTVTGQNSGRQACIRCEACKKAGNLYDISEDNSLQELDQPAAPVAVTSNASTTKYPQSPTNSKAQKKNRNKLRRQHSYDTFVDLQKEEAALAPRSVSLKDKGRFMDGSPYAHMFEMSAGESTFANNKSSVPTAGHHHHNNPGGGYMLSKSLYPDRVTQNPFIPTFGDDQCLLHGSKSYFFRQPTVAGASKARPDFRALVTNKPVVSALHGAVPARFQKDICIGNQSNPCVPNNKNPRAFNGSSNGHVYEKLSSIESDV
T2 sequence (Q12879 23-1464, other chains not shown): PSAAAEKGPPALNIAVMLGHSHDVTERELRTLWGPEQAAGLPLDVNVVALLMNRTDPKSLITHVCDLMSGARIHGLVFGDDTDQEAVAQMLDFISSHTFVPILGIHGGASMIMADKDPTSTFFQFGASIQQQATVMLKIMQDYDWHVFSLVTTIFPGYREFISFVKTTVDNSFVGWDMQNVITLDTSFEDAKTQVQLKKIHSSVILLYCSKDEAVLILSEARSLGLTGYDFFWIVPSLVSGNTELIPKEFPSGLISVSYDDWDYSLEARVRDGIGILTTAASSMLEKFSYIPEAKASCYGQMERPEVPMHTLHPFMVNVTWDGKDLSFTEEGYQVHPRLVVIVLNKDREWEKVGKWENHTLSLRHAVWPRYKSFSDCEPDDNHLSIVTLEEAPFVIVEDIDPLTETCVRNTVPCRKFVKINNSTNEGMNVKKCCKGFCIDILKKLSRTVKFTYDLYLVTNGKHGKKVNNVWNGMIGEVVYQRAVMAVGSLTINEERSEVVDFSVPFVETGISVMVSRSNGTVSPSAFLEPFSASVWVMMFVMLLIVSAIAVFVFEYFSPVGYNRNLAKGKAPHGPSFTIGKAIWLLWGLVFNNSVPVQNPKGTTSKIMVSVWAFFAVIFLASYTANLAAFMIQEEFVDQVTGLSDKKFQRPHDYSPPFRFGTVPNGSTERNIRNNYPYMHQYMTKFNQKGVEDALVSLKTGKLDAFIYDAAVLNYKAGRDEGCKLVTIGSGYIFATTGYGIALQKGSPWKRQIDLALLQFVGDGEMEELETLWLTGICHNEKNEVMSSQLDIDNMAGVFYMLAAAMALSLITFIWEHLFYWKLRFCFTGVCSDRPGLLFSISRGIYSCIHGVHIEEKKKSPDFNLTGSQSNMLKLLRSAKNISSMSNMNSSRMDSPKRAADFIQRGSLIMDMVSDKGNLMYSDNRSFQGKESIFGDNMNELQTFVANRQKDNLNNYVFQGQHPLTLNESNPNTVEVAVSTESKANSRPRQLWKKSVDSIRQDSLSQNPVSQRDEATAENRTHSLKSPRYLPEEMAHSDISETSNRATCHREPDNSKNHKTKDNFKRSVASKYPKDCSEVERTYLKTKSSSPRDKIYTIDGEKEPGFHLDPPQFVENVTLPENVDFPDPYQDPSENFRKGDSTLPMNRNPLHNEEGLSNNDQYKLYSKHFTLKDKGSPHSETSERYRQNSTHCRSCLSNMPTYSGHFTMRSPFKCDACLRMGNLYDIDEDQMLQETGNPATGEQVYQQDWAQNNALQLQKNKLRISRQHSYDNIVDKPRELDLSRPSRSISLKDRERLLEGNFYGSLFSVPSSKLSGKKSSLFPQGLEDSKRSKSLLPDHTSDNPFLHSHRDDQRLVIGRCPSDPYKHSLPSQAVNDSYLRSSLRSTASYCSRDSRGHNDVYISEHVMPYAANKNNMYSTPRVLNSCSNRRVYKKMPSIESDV

| Amplitude (peak whole-cell current in presence of compound) (GluA2/3) | A/AI (amplitude ratio, glutamate alone / with compound) (GluA2/3) | t deact (weighted deactivation time constant) (GluA2/3) | IC50 (GluA2/3; [1]) | Amplitude, applying glutamate alone after compound (GluA2/3) | Amplitude (peak whole-cell current in presence of compound) (GluA2) | A/AI (amplitude ratio, glutamate alone / with compound) (GluA2) | t deact (weighted deactivation time constant) (GluA2) | IC50 (GluA2; [1]) | Amplitude, applying glutamate alone after compound (GluA2) | IC50 (GluA2; [2]) | IC50 (GluA2/3; [2]) | Structure (SMILES) | t des (weighted desensitization time constant) (GluA2/3) | t des (weighted desensitization time constant) (GluA2) | Effect on deactivation kinetics (τdeac), in words (GluA2/3) | Effect on desensitization kinetics (τdes), in words (GluA2/3) | Effect on deactivation kinetics (τdeac), in words (GluA2) | Effect on desensitization kinetics (τdes), in words (GluA2) | other results |
| --- | --- | --- | --- | --- | --- | --- | --- | --- | --- | --- | --- | --- | --- | --- | --- | --- | --- | --- | --- |
| 73 ± 5 pA | 8.02±0.49 | 8.1 ± 0.4 ms | 3.09 µM | 562±28 pA | 156 ± 7 pA | 8.11±0.41 | 8.3 ± 0.3 ms | 3.02 µM | 1231±85 pA | 3.03 µM | – | CSc1ccc(NC(=O)c2c(-c3c(Cl)cccc3Cl)noc2C)cc1 [CIC-1, 3-(2,6-dichlorophenyl)-5-methyl-N-(4-(methylthio)phenyl)isoxazole-4-carboxamide] | 0.7 ± 0.2 ms | 0.6 ± 0.1 ms | – | – | – | – | Effect on normalized peak current (GluN1a/2B): statistically not significant; Effect on normalized peak current (GluN1a/2A): statistically not significant; Increase of deactivation time constant (τdeac) (GluA2/3; versus control): approximately 4 fold; Increase of deactivation time constant (τdeac) (GluA2; versus control): approximately 4 fold |
| 124±19 pA | 4.01±0.19 | 4.5 ± 0.3 ms | 6.46 µM | 484±89 pA | – | 4.10±0.18 | 4.6 ± 0.2 ms | 6.31 µM | 1226±158 pA | 6.3 µM | 6.42 µM | Cc1onc(-c2c(Cl)cccc2Cl)c1C(=O)Nc1ccc(-c2ccccc2)cc1 [CIC-9, N-([1,1′-biphenyl]-4-yl)-3-(2,6-dichlorophenyl)-5-methylisoxazole-4-carboxamide] | 2.0 ± 0.1 ms | 2.0 ± 0.1 ms | statistically significant prolongation of τdeac | accelerated desensitization, although to a lesser degree | statistically significant prolongation of τdeac | accelerated desensitization, although to a lesser degree | – |
| 128±29 pA | 3.86±0.18 | 4.3 ± 0.2 ms | 6.61 µM | 482±128 pA | 328±35 pA | 3.90±0.16 | 4.4 ± 0.2 ms | 6.46 µM | 1249±188 pA | 6.51 µM | 6.62 µM | Cc1onc(-c2c(Cl)cccc2Cl)c1C(=O)Nc1ccc(OC(F)(F)F)cc1 [CIC-10, 3-(2,6-dichlorophenyl)-5-methyl-N-(4-(trifluoromethoxy)phenyl)isoxazole-4-carboxamide] | 2.5 ± 0.1 ms | 2.3 ± 0.1 ms | statistically significant prolongation of τdeac | did not significantly alter desensitization kinetics | statistically significant prolongation of τdeac | did not significantly alter desensitization kinetics | – |
| 141±29 pA | 3.46±0.16 | 2.9 ± 0.2 ms | 7.08 µM | 476±112 pA | 359±28 pA | 3.53±0.15 | 3.0 ± 0.2 ms | 7.08 µM | 1233±147 pA | 7.02 µM | 7.13 µM | Cc1onc(-c2c(F)cccc2Cl)c1C(=O)Nc1ccc(OC(F)(F)F)cc1 [CIC-11, 3-(2-chloro-6-fluorophenyl)-5-methyl-N-(4-(trifluoromethoxy)phenyl)isoxazole-4-carboxamide] | 2.3 ± 0.1 ms | – | did not elicit statistically significant changes | did not significantly alter desensitization kinetics | did not elicit statistically significant changes | did not significantly alter desensitization kinetics | – |
| 162±36 pA | 3.01±0.14 | 2.8 ± 0.2 ms | 7.59 µM | 478±127 pA | 417±47 pA | 3.04±0.13 | 2.7 ± 0.2 ms | 7.59 µM | 1237±195 pA | 7.54 µM | 7.5 µM | Cc1onc(-c2c(Cl)cccc2Cl)c1C(=O)Nc1ccc(C(C)(C)C)cc1 [CIC-12, N-(4-(tert-butyl)phenyl)-3-(2,6-dichlorophenyl)-5-methylisoxazole-4-carboxamide] | 2.3 ± 0.1 ms | 2.4 ± 0.1 ms | did not elicit statistically significant changes | did not significantly alter desensitization kinetics | did not elicit statistically significant changes | did not significantly alter desensitization kinetics | – |
